{"source": "paper PMC8998618", "about": "“A Pharmacokinetic and Metabolism Study of the TRPC6 Inhibitor SH045 in Mice by LC-MS/MS” (International Journal of Molecular Sciences, 2022)", "tested_on": "cytochrome P450 isoenzymes", "assay": "cytochrome P450 isoenzyme inhibition with isoform-specific inhibitors in liver microsomes", "type": "in vitro ADME, mouse and human", "settings": "MLM and HLM, 2 µM SH045, isoform-specific inhibitors", "protocol": "To determine possible metabolizing pathways of SH045 in MLM and HLM, an in vitro inhibition approach was performed with CYP-isoform specific inhibitors. […]\nhomogenates, and shaken vigorousl y for 5 min. 40 µL urine was mixed with 4 µL of IS and extracted with 156 µL pure […]\nAll microsome incubations were stopped with 1 mL ice -cold ACN containing 5 µg/mL IS, vortexed for 1 min and cooled at -20 °C for 10 min.\nAfter centrifugation of mixtures from tissue or microsomal incubations for 15 min at 4 °C, the supernatants were filtered through a 0.2 -µm-pore-size syringe filter and stored in the autosampler at 6 °C until analysis by LC-MS/MS as […]\nSM5 Tissue binding of SH045\nThe tissue binding of SH045 was analyzed exemplarily in lung, liver and kidney homogenate using ultrafiltration [5]. […] 20 µL of the mixture and the filtrate were analyzed for SH045. […]\nTestosterone (10 µM in ACN/DPBS 2/3, v/v) instead of SH045 was used as positive control and analyzed by an appropriate HPLC method with UV detection.\nNegative controls contained either no NADPH, no MLM or HLM or none of them. The overall velocity (v) of degradation was calculated from altered SH045 concentration (∆c) obtained from reduction peak area ratio of SH045 as: v = ∆c / incubation time × concentration of enzyme × volume (nmol/ min × mg). […]", "data": [{"molecule": "C=C[C@@](C)(O)CC[C@H]1C(=C)C[C@H](OC(=O)NC)[C@H]2C(C)(C)CCC[C@]12C", "note": "[SH045, (1S,4S,4aR,8aS)-4-((S)-3-Hydroxy-3-methylpent-4-en-1-yl)-4a,8,8-trimethyl-3-methylenedecahydronaphthalen-1-yl methylcarbamate]", "values": [{"measurement": "cytochrome P450 isoenzymes metabolizing SH045", "result": "substrate of CYP3A4 and CYP2A6"}]}]}
